Measured values reported in patent publication US8937038B2, “Composition containing peptide ligand that bonds with CXCR2 for treating infective and inflammatory diseases” (priority 2010, dated 2015).

Key:
PBMCs = experiment: Cytokine production by LPS-stimulated human PBMCs; format: cell-based; settings: human PBMCs stimulated with LPS
From the text: (§1) All kinds of protocols used in human beings were approved by the Institutional Review Board (IRB) at Dong-A University Hospital, and prior consents were obtained from all blood donors. Peripheral blood was collected from healthy donors, and human peripheral monocytes were separated using a Histopaque-1077 gradient. Neutrophils were separated through methods such as dextran precipitation of red blood cell, hypotonic lysis, and usage of lymphocyte isolation medium gradient, as known in the related art (Bae, Y. S. et al. Blood 97, 2854-2862(2001)). The separated human leukocytes were used immediately.
(§2) Next, an effect of the Ac-PGP on production of cytokines by human neutrophils and PBMCs was examined. […] A human CXCR2 chemokine agonist CXCL8 had few effects on production of TNF-α or IFN-γ stimulated with LPS (FIG. 28 to FIG. 31). Therefore, the Ac-PGP could improve both antiseptic activities in leukocytes derived from human beings and mice.

CLP mice = experiment: Survival of CLP sepsis mice; format: in vivo, mouse
Method: Male WT ICR mice were used to evaluate a therapeutic effect of Ac-PGP. IFN-γ-deficient mice (kindly provided by Y. K. Kim at the Pohang University of Science and Technology, Pohang, Republic of Korea) were used for mechanism study. All Examples in which animals were used were performed according to the instructions with permission of the Institutional Review Board (IRB) for the care and management of laboratory animals at Dong-A University. In the case of the CLP, mice were anesthetized with pentothal sodium (50 mg/kg, intraperitoneally injected), and abdomen of each mouse was cut along a central cutting line to expose an appendix. Then, an ileocecal valve of the appendix was tied up, both surfaces of the ileocecal valve were punctured twice with a 22-gauge needle (or punctured once to measure a production amount of cytokines), and the abdomen was sutured. Sham CLP mice were treated in the same manner as described above, except that CLP of the appendix was not performed. A survival rate of the mice was monitored every day for 10 days. In the case of the LPS or E. coli model, E. coli and LPS were intraperitoneally injected at concentrations of 1×10^9 cells/mouse and 60 mg/kg, respectively. A survival rate of the mice was monitored once a day for 10 days.
An experimental therapeutic effect of Ac-PGP on sepsis was examined in CLP using albino Institute of Cancer Research (ICR) mice. Survival of the mice was monitored for 10 days after CLP. On the second day after the CLP, only 20% of untreated WT mice survived (FIG. 1).
The Ac-PGP was evaluated to determine whether the antiseptic activity of Ac-PGP served through CXCR2 that was a known receptor of Ac-PGP.

mouse neutrophils = experiment: H2O2 production in mouse neutrophils; format: cell-based; settings: various concentrations, 10 minutes, cytochalasin B 5 μM; FIG. 12
Method: Mouse neutrophils were separated from peripheral blood using a Histopaque-1077 solution (Sigma) (Bae Y S et al. 2001 Blood. 97: 2854-2862). The neutrophils separated from normal mice were stimulated with various concentrations of Ac-PGP for 10 minutes in the presence of cytochalasin B (5 μM). To identify the role of mCXCR2, the neutrophils were pre-incubated in various concentrations of SB225002 or a vehicle (DMSO) for 30 minutes in a stationary environment, and Ac-PGP (20 μM) was added, and incubated for 10 minutes. H2O2 in a supernatant was measured using a H2O2 measurement kit (Molecular probe).
A death rate by CLP is correlated with the number of bacterial colonies in a peritoneal fluid. Therefore, an effect of the Ac-PGP on removal of bacteria in a peritoneal fluid was examined. […] In vitro disinfection activity of the Ac-PGP was examined using neutrophils derived from a mouse. The mouse neutrophils were kept for an hour to phagocytize E. coli, and then stimulated with various concentrations of Ac-PGP (0.1 to 100 nM) for 20 minutes. […] A reactive oxygen species such as hydrogen peroxide was known as an important molecule participating in the disinfection activity. Therefore, an effect of Ac-PGP on production of hydrogen peroxide in the mouse neutrophils was examined. […]

human neutrophils = experiment: Cytokine production by LPS-stimulated human neutrophils; format: cell-based; settings: human neutrophils stimulated with LPS
From the text: as §1, §2

mouse splenocytes = experiment: Cytokine release from LPS-stimulated mouse splenocytes (ELISA); format: cell-based
Method: Mouse splenocytes were positioned on an RPMI 1640 medium including 5% FBS in a 96-well plate, and maintained at 37° C. in a 5% CO2 incubator. Thereafter, the splenocytes were stationarily incubated with LPS (100 ng/ml) for 24 hours in the presence or absence of Ac-PGP. After 30 minutes, LPS was added to the cells and collected a cell-free supernatant, and then the supernatant was centrifuged, and TNF-α, IL-6 and IFN-γ were measured using ELISA (BD Biosciences Pharmingen). In regards to the effect of IFN-γ on production of pro-inflammatory cytokines induced by LPS, 5×10^5 cells/ml of the mouse splenocytes were stimulated with 100 ng/ml of LPS in the presence or absence IFN-γ (R&D) (at various concentrations of 1, 10, 100 and 1,000 IU/ml). Amounts of TNF-α and IL-6 were measured 20 hours after stationary incubation using ELISA (BD Biosciences Pharmingen).
An effect of the Ac-PGP on a pro-inflammatory cytokine in a peritoneal fluid by CLP was determined from 4 to 72 hours after the CLP. The CLP induced a remarkable increase in levels of pro-inflammatory cytokines (TNF-α, IL-1β and IL-6) within 24 hours (FIGS. 14 to 16). Injection of the Ac-PGP in a sepsis model by the CLP induced a remarkable change in levels of the cytokines. […] To evaluate an effect of the Ac-PGP on production of the pro-inflammatory cytokines by the LPS, in vitro production of TNF-α and IL-6 by the mouse splenocytes was evaluated. Direct release of the TNF-α and IL-6 from the mouse splenocytes by the LPS was suppressed by in vitro treatment with the Ac-PGP (FIGS. 17 and 18).
Since it was confirmed that the administration of the Ac-PGP improved in vivo production of IFN-γ, a direct effect of the Ac-PGP on production of IFN-γ by splenocytes was examined. […] Also, an effect of IFN-γ on production of the pro-inflammatory cytokines was also examined.

Substance: acetylated-Pro-Gly-Pro [Ac-PGP]
- production of TNF-α (PBMCs; FIG. 29): remarkably suppressed
- production of IFN-γ (PBMCs; FIG. 31): remarkably improved
- survival rate (CLP mice; 17.5 mg/kg injected 3 or 4 times from 2 hours after CLP at an interval of 12 hours, FIG. 2): highly increased
- survival rate (CLP mice; CLP mice pretreated with CXCR2-selective antagonist SB225002, FIG. 5): could not improve the survival rate
- survival rate (CLP mice; CXCR2-deficient sepsis mice, FIG. 6): could not improve a survival rate
- survival rate (CLP mice; administered 4 to 5 times at 17.5 mg/kg): highest increase in survival rate
- therapeutic effect (survival) (CLP mice; injected 10 hours after the CLP, FIG. 3): a therapeutic effect was still exhibited
- survival of the mice (CLP mice; injection of 7.5, 12.5 or 17.5 mg/kg, compared with PBS-injected control, FIG. 1): remarkably increased survival of the mice
- survival rate (CLP mice; subcutaneous administration 2 hours after CLP, various doses, monitored 10 days, FIG. 1): remarkably increased the survival rate in a dose-dependent manner
- production of hydrogen peroxide (mouse neutrophils): strongly increased production of hydrogen peroxide in a concentration-dependent manner
- production of TNF-α (human neutrophils; FIG. 28): remarkably suppressed
- production of IFN-γ (human neutrophils; FIG. 30): remarkably improved
- release of TNF-α by LPS (mouse splenocytes; LPS 100 ng/ml, 24 hours, FIG. 17): suppressed
- release of IL-6 by LPS (mouse splenocytes; LPS 100 ng/ml, 24 hours, FIG. 18): suppressed
- production of IFN-γ by LPS (mouse splenocytes; LPS-stimulated splenocytes, FIG. 24): increased production of IFN-γ
